# Assay results from patent US20090098209A1, “PHARMACEUTICAL CO[…]-SOLUBLE DERIVATIVES OF PROPOFOL AND METHODS OF ADMINISTERING SAME VIA PULMONARY ADMINISTRATION” (UNIVERSITY OF KANSAS, priority 2007, published 2009).
# Tests used:
# [1] = Study 1: pulmonary delivery by nebulizer and facemask, plasma propofol and sedation; assay type: in vivo; settings: one male beagle dog, inhalation of 3 mL of 250 mg/mL aqueous solution over approximately 10 min
# Protocol: (§1) A preliminary study was conducted to assess the conversion of O-phosphonooxymethyl propofol disodium salt to the pharmacologically active drug propofol following pulmonary delivery. A male beagle dog was fasted overnight prior to the study. O-phosphonooxymethyl propofol disodium salt was dissolved in water (250 mg/mL). 3-mL of the O-phosphonooxymethyl propofol disodium salt solution was delivered over approximately 10 min to the dog via inhalation through a nebulizer connected to a facemask that was placed over the dog's muzzle. The actual dose of O-phosphonooxymethyl propofol disodium salt delivered to the dog is less than the dose nebulized due to vapor loss during exhalation. Two mL blood samples were collected via a catheter placed in the cephalic vein prior to the study. Samples were collected for 1.5 hours post-dose at 5, 10, 20, 30, 40, 50, 60 and 90 minutes after initiation of delivery by inhalation. The concentration of propofol in the blood samples was determined using HPLC with fluorescence detection.
# These finding are significant, as it is known that humans are more susceptible to the affects of propofol than dogs. Therefore, the onset of action would be very rapid in humans.
# [2] = Study 2: pulmonary delivery by nebulizer for a defined time (10 min), plasma propofol and sedation; assay type: in vivo; settings: three male beagle dogs, 250 mg/mL aqueous solution nebulized for 10 min
# Protocol: as §1, with “A second” for “A preliminary”, “delivery. The study design was essentially the same as Study 1 above except that the O-phosphonooxymethyl propofol disodium salt solution was nebulized for a defined period of time (10 min) instead of to complete nebulization of the solution. Three” for “delivery. A”, “beagle dogs” for “beagle dog”, “mg/mL). The” for “mg/mL). 3-mL of the”, “delivered for” for “delivered over approximately”
# These finding are significant, as it is known that humans are more susceptible to the effects of propofol than dogs. […]
# [3] = sample at 5 minutes post dose initiation, HPLC with fluorescence detection
compound,measurement,setting,value
CC(C)c1cccc(C(C)C)c1OCOP(=O)([O-])[O-].[Na+].[Na+] [O-phosphonooxymethyl propofol disodium salt],"signs of sedation, time after the completion of the inhaled dose",[1],approximately 15 minutes
same,"concentration of propofol in the plasma, first blood sample",[1]; [3],significant concentration of propofol in the plasma
same,"signs of sedation, time after the completion of the inhaled dose",[2],10 to 15 min
same,"concentration of propofol in the plasma, first blood sample",[2]; [3],significant concentration of propofol in the plasma
